# Data as given in PMC4465654, “Multi-Leu PACE4 Inhibitor Retention within Cells Is PACE4 Dependent and a Prerequisite for Antiproliferative Activity” (BioMed Research International, 2015).
# “Also recorded” adds a separate entry of the source. Read-outs that look alike come from different tables or passages of the source. Where a SMILES comes first, the peptide text is derived from it.
# Assays:
# HepG2 cells = assay: MTT cell proliferation assay, HepG2; type: cell-based; conditions: 72 h, serum-free medium, 1 μM to 300 μM, means of at least 3 independent experiments (Figure 5a)
# Protocol: (§1) To evaluate peptide growth inhibitory properties, 3000 (Huh7) and 4000 (HepG2) cells were seeded in triplicate in 96-well plates. After 24 h, media was changed for serum-free medium and increasing concentrations of peptide were added. After 72 h, 25 μL of 3-(4,5-Dimethylthiazol-2-yl)-2,5-diphenyltetrazolium bromide (MTT) reagent (5 mg/mL; Sigma Aldrich) was added to each well and, after 4-hour incubation, medium was carefully removed and cells were lysed in acidic isopropanol (24 : 1 HCl 1 N). Absorbance at 550 nm and 650 nm (reference wavelength) was measured using a plate spectrophotometer.
# (§2) Figure 5 Antiproliferative properties of ML peptide on the tested cell lines. […] Data are means ± SEM of at least 3 independent experiments.
# Huh7 cells = assay: MTT cell proliferation assay, Huh7; type: cell-based; conditions: 72 h, serum-free medium, 1 μM to 300 μM, means of at least 3 independent experiments (Figure 5b)
# Protocol: as §1, §2
# HT1080 cells = assay: MTT cell proliferation assay, HT1080; type: cell-based; conditions: 72 h, serum-free medium, 1 μM to 300 μM, means of at least 3 independent experiments (Figure 5c)
# recombinant PACE4 = conditions: in vitro inhibition, read-out: K i against recombinant PACE4, cited from earlier work
SMILES,inhibition of cell proliferation relative to untreated cells (HepG2 cells),inhibition of cell proliferation relative to untreated cells (Huh7 cells),inhibition of cell proliferation relative to untreated cells (HT1080 cells),Ki (recombinant PACE4; independently of the addition of the NOTA moiety) [µM],Ki (recombinant PACE4) [µM]
"CC(=O)N[C@@H](CC(C)C)C(=O)N[C@@H](CC(C)C)C(=O)N[C@@H](CC(C)C)C(=O)N[C@@H](CC(C)C)C(=O)N[C@@H](CCCNC(=N)N)C(=O)N[C@H](C(=O)N[C@@H](CCCCN)C(=O)N[C@@H](CCCNC(=N)N)C(N)=O)C(C)C [ML peptide, Ac-LLLLRVKR-NH2] (Ac-LLLLRVKR-NH2)",dose-response inhibition of cell proliferation,dose-response inhibition of cell proliferation,dose-response inhibition of cell proliferation; also recorded: lowest response,0.02,
"CC(=O)N[C@@H](CCCNC(=N)N)C(=O)N[C@@H](CC(C)C)C(=O)N[C@@H](CCCNC(=N)N)C(=O)N[C@@H](CC(C)C)C(=O)N[C@@H](CC(C)C)C(=O)N[C@@H](CCCCN)C(=O)N[C@H](C(=O)N[C@@H](CC(C)C)C(N)=O)C(C)C [scramble version of the ML peptide, Ac-RLRLLKVL-NH2, reference compound] (Ac-RLRLLKVL-NH2)",inactive,inactive,inactive,,> 10
